Measurements from patent US8772012B2 (Kabushiki Kaisha Toyota Chuo Kenkyusho, priority 2009, dated 2014).

Key:
[1] = test system: Piromyces sp. E2 xylose isomerase PiXI, expressed in yeast; details: Non-patent Literature 1; cited from earlier work
[2] = test system: Clostridium phytofermentans xylose isomerase CpXI (protein ID: YP_001558336), expressed in yeast; details: Non-patent Literature 1; cited from earlier work
[3] = target: Piromyces sp. E2 xylose isomerase PiXI-O (PiXI; codon optimized gene PiXI-O, SEQ ID NO: 46), expressed in yeast (Piromyces sp. E2, UniProt A0ACD6B9F5); assay: Xylose isomerase kinetic analysis, crude yeast extract of W600W/pRS436GAP-PiXI-O (SDH-coupled NADH oxidation); format: biochemical
Procedure: (§1) The genes were synthesized by Genscript Corporation (www.Genscript.com) and Life Technologies Corporation (www.lifetechnologies.com), and the synthesized genes were named RsXIC1-O (SEQ ID NO: 45), PiXI-O (SEQ ID NO: 46) and CpXI-O (SEQ ID NO: 47), respectively.
(§2) The W600W/pRS436GAP-RsXIC1-O strain and W600W/pRS436GAP-PiXI-O strain were cultured for 24 hours in SD liquid medium, and the cells were collected and washed twice with sterile water, and then washed twice with 100 mM phosphate buffer (pH 7.0). After washing, glass beads (di 0.3 mm, Yasui Kikai) and 100 mM phosphate buffer (pH 7.0) were added to the yeast pellets, and a Multi-beads shocker (Yasui Kikai) was operated for 7 minutes at 4° C., 2500 rpm to disrupt the yeast cells. The resulting disrupted cell liquid was centrifuged for 5 minutes at 4° C., 12000 rpm, and the supernatant was collected as a crude yeast extract. The total protein concentration of the crude yeast extract was measured with a Quick Start protein assay kit (Bio-Rad).
(§3) The reaction was performed at 30° C., and NADH absorbancy changes were measured at a wavelength of 340 nm with a Ubest-55 spectrometer (Jasco).

[4] = test system: Xylose isomerase RsXIC1-O (RsXI-C1, SEQ ID NO: 2; codon optimized gene RsXIC1-O, SEQ ID NO: 45), intestinal protist of Reticulitermes speratus, expressed in …; assay: Xylose isomerase kinetic analysis, crude yeast extract of W600W/pRS436GAP-RsXIC1-O (SDH-coupled NADH oxidation); format: biochemical
Procedure: as §1, §2, §3

[5] = xylose 5 to 250 mM, pH 7.5, 30° C., 10 mM MgCl2, crude yeast extract, Hanes-Woolf plot

Piromyces sp. E2 xylose isomerase PiXI-O (PiXI; codon optimized gene PiXI-O, SEQ ID NO: 46), expressed in yeast, sequence (A0ACD6B9F5 1-437): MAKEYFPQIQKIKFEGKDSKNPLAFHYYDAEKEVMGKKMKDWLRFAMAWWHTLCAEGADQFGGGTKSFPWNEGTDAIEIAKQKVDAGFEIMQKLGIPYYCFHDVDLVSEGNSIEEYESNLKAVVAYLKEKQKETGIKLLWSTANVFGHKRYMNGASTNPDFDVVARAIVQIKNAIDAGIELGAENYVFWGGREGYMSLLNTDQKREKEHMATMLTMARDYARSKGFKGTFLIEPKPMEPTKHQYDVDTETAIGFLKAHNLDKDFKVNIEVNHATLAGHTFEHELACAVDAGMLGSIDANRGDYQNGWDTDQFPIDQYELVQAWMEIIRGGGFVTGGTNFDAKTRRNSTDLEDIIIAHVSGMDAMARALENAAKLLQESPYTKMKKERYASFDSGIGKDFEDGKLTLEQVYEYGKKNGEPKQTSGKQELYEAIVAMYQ

## OC1OC[C@@H](O)[C@H](O)[C@H]1O (stereo partly shown) [xylose]
[1]
  Km: 49.8 ± 2.82 mM
[2]
  Km: 66 ± 1 mM
[3]; Vmax ratio PiXI-O vs RsXIC1-O
  maximum reaction velocity Vmax for PiXI-O relative to RsXIC1-O: about 1.5 times
[3]; [5]
  Vmax: 0.078 ± 0.026 μmol/mg-protein
[4]; Km ratio RsXIC1-O vs PiXI-O
  Km value for RsXIC1-O relative to the value for PiXI-O: not more than ⅓
[4]; [5]
  Km: 13.3 ± 2.02 mM
  Vmax: 0.054 ± 0.007 μmol/mg-protein
